{"source": "patent US5254533A", "about": "“Elfamycin” (Rhone-Poulenc Rorer S.A., priority 1990, dated 1993)", "assay_in_all_cases": "MIC, antibacterial activity (agar dilution)", "assay_type_in_all_cases": "cell-based", "key": {"[1]": {"system": "Staphylococcus aureus Weichbrodt", "settings": "Mueller Hinton Agar, about 18 h at about 37° C"}, "[2]": {"system": "Staphylococcus aureus S tA 1", "settings": "STA1, Mueller Hinton Agar, about 18 h at about 37° C"}, "[3]": {"system": "Proteus mirabilis Villette", "settings": "Mueller Hinton Agar, about 18 h at about 37° C"}, "[4]": {"system": "Staphylococcus aureus S tA 2", "settings": "STA2, Mueller Hinton Agar, about 18 h at about 37° C"}, "[5]": {"system": "Streptococcus uberis 8", "settings": "Mueller Hinton Agar, about 18 h at about 37° C"}, "[6]": {"system": "Enterobacter cloacae IP 085", "settings": "IP085, Mueller Hinton Agar, about 18 h at about 37° C"}, "[7]": {"system": "Staphylococcus faecalis", "settings": "Mueller Hinton Agar, about 18 h at about 37° C"}}}
{"smiles": "C/C=C\\C=C\\C1OC(O)(C(CC)C(=O)NC/C=C/C=C(\\C)C(OC)C(C)C2CC(O)C(/C=C/C=C/C=C/C(=O)O)O2)C(O)C(O)C1(C)C", "note": "(stereo not shown) [formula (II)]", "values": [{"measurement": "MIC", "setting": "[1]", "result": "> 300", "unit": "µg/mL"}, {"measurement": "MIC", "setting": "[2]", "result": "> 300", "unit": "µg/mL"}, {"measurement": "MIC", "setting": "[3]", "result": "> 300", "unit": "µg/mL"}, {"measurement": "MIC", "setting": "[4]", "result": "> 300", "unit": "µg/mL"}, {"measurement": "MIC", "setting": "[5]", "result": 100, "unit": "µg/mL"}, {"measurement": "MIC", "setting": "[6]", "result": "> 300", "unit": "µg/mL"}, {"measurement": "MIC", "setting": "[7]", "result": "> 300", "unit": "µg/mL"}]}
